Source: patent publication US20100311714A1, “1H-IMIDAZO[4,5-c]QUINOLINONE COMPOUNDS” (priority 2009, published 2010)
Where two headings read alike, the source gives them in different places.

Biological target: T1, PI3K alfa (Homo sapiens, UniProt P42336)
T1 construct: His tag (C); made in house; host or cells: baculovirus BV1075; Tn5 (Trichoplusia ni) or TiniPro insect cells
Assay: PI3K alpha kinase assay (Kinase-Glo luminescence)
Assay type: biochemical
Method in brief: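 IC50 values come from a four-parameter logistic fit of percent inhibition at eight concentrations, typically 10 to 0.003 μM. Recombinant PI3Kα at 10 nM turned over 1 μM ATP with 10 μg/mL PI for 60 min at room temperature, and residual ATP was measured by Kinase-Glo.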

T1 sequence (P42336 with tags, fused parts or gaps limits assumed): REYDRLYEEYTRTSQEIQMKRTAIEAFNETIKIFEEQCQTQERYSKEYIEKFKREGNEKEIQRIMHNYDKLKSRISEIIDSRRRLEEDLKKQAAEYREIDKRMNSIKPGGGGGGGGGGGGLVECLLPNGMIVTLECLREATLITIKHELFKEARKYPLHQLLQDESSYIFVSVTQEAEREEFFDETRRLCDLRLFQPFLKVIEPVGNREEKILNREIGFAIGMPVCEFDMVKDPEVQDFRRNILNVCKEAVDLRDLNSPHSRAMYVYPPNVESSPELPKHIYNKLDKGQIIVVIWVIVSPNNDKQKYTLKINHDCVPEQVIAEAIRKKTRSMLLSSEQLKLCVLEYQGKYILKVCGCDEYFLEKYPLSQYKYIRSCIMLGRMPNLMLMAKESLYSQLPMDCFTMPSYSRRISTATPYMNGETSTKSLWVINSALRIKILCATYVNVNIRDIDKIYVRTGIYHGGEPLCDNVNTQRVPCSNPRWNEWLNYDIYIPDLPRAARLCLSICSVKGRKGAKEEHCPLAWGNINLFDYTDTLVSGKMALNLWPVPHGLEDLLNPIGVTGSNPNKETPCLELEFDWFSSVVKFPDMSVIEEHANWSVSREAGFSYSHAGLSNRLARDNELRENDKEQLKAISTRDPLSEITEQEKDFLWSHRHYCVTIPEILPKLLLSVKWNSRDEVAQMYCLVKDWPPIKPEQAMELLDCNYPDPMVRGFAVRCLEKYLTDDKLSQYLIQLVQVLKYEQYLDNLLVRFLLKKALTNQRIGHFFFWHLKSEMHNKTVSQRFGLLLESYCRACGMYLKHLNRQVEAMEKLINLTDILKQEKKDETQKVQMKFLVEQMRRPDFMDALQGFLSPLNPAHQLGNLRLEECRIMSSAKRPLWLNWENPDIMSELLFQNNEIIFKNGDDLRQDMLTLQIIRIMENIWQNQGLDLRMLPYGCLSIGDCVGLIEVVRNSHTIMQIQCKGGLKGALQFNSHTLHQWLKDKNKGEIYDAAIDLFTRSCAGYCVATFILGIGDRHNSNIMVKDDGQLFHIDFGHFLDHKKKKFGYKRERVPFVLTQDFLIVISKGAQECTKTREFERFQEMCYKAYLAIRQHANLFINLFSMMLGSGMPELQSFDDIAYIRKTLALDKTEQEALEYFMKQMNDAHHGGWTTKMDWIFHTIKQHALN

Row | Compound | IC50 (read-out: PI3Kalfa/IC50) | IC50 (read-out: EPK_PI3Kalfa/IC50)
1 | CN(C)c1ccc(-c2ccc3ncc4c(c3c2)n(-c2cccnc2)c(=O)n4C)cn1 [Example 5.3, 8-(6-Dimethylamino-pyridin-3-yl)-3-methyl-1-pyridin-3-yl-1,3-dihydro-imidazo[4,5-c]quinolin-2-one] | 47 nM | 
2 | COC1CCN(c2ccc(-n3c(=O)n(C)c4cnc5ccc(-c6cncc(C(C)(C)O)c6)cc5c43)c(C)n2)C1 (stereo not shown) [Example 28.1, 8-[5-(1-Hydroxy-1-methyl-ethyl)-pyridin-3-yl]-1-[6-(3-methoxy-pyrrolidin-1-yl)-2-methyl-pyridin-3-yl]-3-methyl-1,3-dihydro-imidazo[4,5-c]quinolin-2-one] |  | 18 nM
3 | CCNc1ncc(-c2ccc3ncc4c(c3c2)n(-c2ccc(N3CC[C@@H](O)C3)nc2C)c(=O)n4C)cc1C(F)(F)F [Example 34.2, 8-(6-Ethylamino-5-trifluoromethyl-pyridin-3-yl)-1-[6-((R)-3-hydroxy-pyrrolidin-1-yl)-2-methyl-pyridin-3-yl]-3-methyl-1,3-dihydro-imidazo[4,5-c]quinolin-2-one] |  | 28 nM
4 | COc1cc(-c2ccc3ncc4c(c3c2)n(-c2ccc(N3CC(O)C3)nc2C)c(=O)n4C)cnc1CO [Example 29.5, 1-[6-(3-Hydroxy-azetidin-1-yl)-2-methyl-pyridin-3-yl]-8-(6-hydroxymethyl-5-methoxy-pyridin-3-yl)-3-methyl-1,3-dihydro-imidazo[4,5-c]quinolin-2-one] |  | 31 nM
5 | Cc1ncccc1-n1c(=O)n(C)c2cnc3ccc(-c4cncc(N5CCC5)c4)cc3c21 [Example 2.29, 8-(5-Azetidin-1-yl-pyridin-3-yl)-3-methyl-1-(2-methyl-pyridin-3-yl)-1,3-dihydro-imidazo[4,5-c]quinolin-2-one] |  | 179 nM
6 | CNc1ccc(-c2ccc3ncc4c(c3c2)n(-c2cccnc2C)c(=O)n4C)cn1 [Example 2.13, 3-Methyl-8-(6-methylamino-pyridin-3-yl)-1-(2-methyl-pyridin-3-yl)-1,3-dihydro-imidazo[4,5-c]quinolin-2-one] | 14 nM | 
7 | Cc1nc(N2CCN(C)C(=O)C2)ccc1-n1c(=O)n(C)c2cnc3ccc(-c4cnc(N)c(C(F)(F)F)c4)cc3c21 [Example 21.1, 8-(6-Amino-5-trifluoromethyl-pyridin-3-yl)-3-methyl-1-[2-methyl-6-(4-methyl-3-oxo-piperazin-1-yl)-pyridin-3-yl]-1,3-dihydro-imidazo[4,5-c]quinolin-2-one] |  | 5 nM
8 | COc1ccc(-c2ccc3ncc4c(c3c2)n(-c2ncccc2C)c(=O)n4C)cc1OC [Example 3.10, 8-(3,4-Dimethoxy-phenyl)-3-methyl-1-(3-methyl-pyridin-2-yl)-1,3-dihydro-imidazo[4,5-c]quinolin-2-one] | 57 nM | 
9 | CCOc1ccc(-c2ccc3ncc4c(c3c2)n(-c2cccnc2F)c(=O)n4C)cn1 [Example 6.1, 8-(6-Ethoxy-pyridin-3-yl)-1-(2-fluoro-pyridin-3-yl)-3-methyl-1,3-dihydro-imidazo[4,5-c]quinolin-2-one] | 21 nM | 
10 | Cc1nc(N2CCC2)ccc1-n1c(=O)n(C)c2cnc3ccc(-c4cncc(C(C)(C)O)c4)cc3c21 [Example 23.3, 1-(6-Azetidin-1-yl-2-methyl-pyridin-3-yl)-8-[5-(1-hydroxy-1-methyl-ethyl)-pyridin-3-yl]-3-methyl-1,3-dihydro-imidazo[4,5-c]quinolin-2-one] |  | 7 nM
11 | Cc1ncccc1-n1c(=O)n(C)c2cnc3ccc(-c4ccc(C(N)=O)cc4)cc3c21 [Example 2.3, 4-[3-Methyl-1-(2-methyl-pyridin-3-yl)-2-oxo-2,3-dihydro-1H-imidazo[4,5-c]quinolin-8-yl]-benzamide] | 20 nM | 
12 | Cc1nc(F)ccc1-n1c(=O)n(C)c2cnc3ccc(-c4cnc5c(ccn5C)c4)cc3c21 [Example 7.2, 1-(6-Fluoro-2-methyl-pyridin-3-yl)-3-methyl-8-(1-methyl-1H-pyrrolo[2,3-b]pyridin-5-yl)-1,3-dihydro-imidazo[4,5-c]quinolin-2-one] | 32 nM | 
13 | Cc1ncccc1-n1c(=O)n(C)c2cnc3ccc(-c4cnc(N)c(C(F)(F)F)c4)cc3c21 [Example 2.11, 8-(6-Amino-5-trifluoromethyl-pyridin-3-yl)-3-methyl-1-(2-methyl-pyridin-3-yl)-1,3-dihydro-imidazo[4,5-c]quinolin-2-one] | 7 nM | 
14 | Cc1nc(N2CCCC2)ccc1-n1c(=O)n(C)c2cnc3ccc(-c4cncc(C(C)(C)O)c4)cc3c21 [Example 25.3, 8-[5-(1-Hydroxy-1-methyl-ethyl)-pyridin-3-yl]-3-methyl-1-(2-methyl-6-pyrrolidin-1-yl-pyridin-3-yl)-1,3-dihydro-imidazo[4,5-c]quinolin-2-one] |  | < 3 nM
15 | Cn1c(=O)n(-c2cccnc2F)c2c3cc(-c4cnc(N)c(C(F)(F)F)c4)ccc3ncc21 [Example 6.2, 8-(6-Amino-5-trifluoromethyl-pyridin-3-yl)-1-(2-fluoro-pyridin-3-yl)-3-methyl-1,3-dihydro-imidazo[4,5-c]quinolin-2-one] | 9 nM | 
16 | CCOc1ccc(-c2ccc3ncc4c(c3c2)n(-c2ccc(N3CCNCC3)nc2OC)c(=O)n4C)cn1 [Example 9.1, 8-(6-Ethoxy-pyridin-3-yl)-1-(2-methoxy-6-piperazin-1-yl-pyridin-3-yl)-3-methyl-1,3-dihydro-imidazo[4,5-c]quinolin-2-one] | 58 nM | 
17 | Cc1cccnc1-n1c(=O)n(C)c2cnc3ccc(-c4ccc(C(N)=O)cc4)cc3c21 [Example 3.3, 4-[3-Methyl-1-(3-methyl-pyridin-2-yl)-2-oxo-2,3-dihydro-1H-imidazo[4,5-c]quinolin-8-yl]-benzamide] | 51 nM | 
18 | CNc1cncc(-c2ccc3ncc4c(c3c2)n(-c2cccnc2C)c(=O)n4C)c1 [Example 2.26, 3-Methyl-8-(5-methylamino-pyridin-3-yl)-1-(2-methyl-pyridin-3-yl)-1,3-dihydro-imidazo[4,5-c]quinolin-2-one] |  | 14 nM
19 | Cn1c(=O)n(-c2cccnc2)c2c3cc(-c4ccc(CO)nc4)ccc3ncc21 [Example 5.1, 8-(6-Hydroxymethyl-pyridin-3-yl)-3-methyl-1-pyridin-3-yl-1,3-dihydro-imidazo[4,5-c]quinolin-2-one] | 74 nM | 
20 | Cc1nc(F)ccc1-n1c(=O)n(C)c2cnc3ccc(-c4cnc(N)c(C(F)(F)F)c4)cc3c21 [Example 7.1, 8-(6-Amino-5-trifluoromethyl-pyridin-3-yl)-1-(6-fluoro-2-methyl-pyridin-3-yl)-3-methyl-1,3-dihydro-imidazo[4,5-c]quinolin-2-one] | 4 nM | 
21 | COc1ccc(-c2ccc3ncc4c(c3c2)n(-c2cccnc2C)c(=O)n4C)cn1 [Example 2.12, 8-(6-Methoxy-pyridin-3-yl)-3-methyl-1-(2-methyl-pyridin-3-yl)-1,3-dihydro-imidazo[4,5-c]quinolin-2-one] | 26 nM | 
22 | COc1ncccc1-n1c(=O)n(C)c2cnc3ccc(-c4ccc(C(N)=O)cc4)cc3c21 [Example 1.6, 4-[1-(2-Methoxy-pyridin-3-yl)-3-methyl-2-oxo-2,3-dihydro-1H-imidazo[4,5-c]quinolin-8-yl]-benzamide] | 17 nM | 
23 | COCc1ncc(-c2ccc3ncc4c(c3c2)n(-c2ccc(N3CCC3)nc2C)c(=O)n4C)cc1OC [Example 23.6, 1-(6-Azetidin-1-yl-2-methyl-pyridin-3-yl)-8-(5-methoxy-6-methoxymethyl-pyridin-3-yl)-3-methyl-1,3-dihydro-imidazo[4,5-c]quinolin-2-one] |  | 44 nM
24 | COc1ccc(-c2ccc3ncc4c(c3c2)n(-c2cnccc2C)c(=O)n4C)cn1 [Example 4.3, 8-(6-Methoxy-pyridin-3-yl)-3-methyl-1-(4-methyl-pyridin-3-yl)-1,3-dihydro-imidazo[4,5-c]quinolin-2-one] | 73 nM | 
25 | CNc1ncc(-c2ccc3ncc4c(c3c2)n(-c2ccc(C(C)(C)O)nc2C)c(=O)n4C)cc1F [Example 31.1, 8-(5-Fluoro-6-methylamino-pyridin-3-yl)-1-[6-(1-hydroxy-1-methyl-ethyl)-2-methyl-pyridin-3-yl]-3-methyl-1,3-dihydro-imidazo[4,5-c]quinolin-2-one] |  | 23 nM
26 | Cc1cccnc1-n1c(=O)n(C)c2cnc3ccc(-c4cnc(N)c(C(F)(F)F)c4)cc3c21 [Example 3.12, 8-(6-Amino-5-trifluoromethyl-pyridin-3-yl)-3-methyl-1-(3-methyl-pyridin-2-yl)-1,3-dihydro-imidazo[4,5-c]quinolin-2-one] | 16 nM | 
27 | COc1ncc(-c2ccc3ncc4c(c3c2)n(-c2ccc(N3CC(O)C3)nc2C)c(=O)n4C)c(OC)n1 [Example 29.6, 8-(2,4-Dimethoxy-pyrimidin-5-yl)-1-[6-(3-hydroxy-azetidin-1-yl)-2-methyl-pyridin-3-yl]-3-methyl-1,3-dihydro-imidazo[4,5-c]quinolin-2-one] |  | 23 nM
28 | CNc1ncc(-c2ccc3ncc4c(c3c2)n(-c2ccc(N3CCC(O)C3)nc2C)c(=O)n4C)cn1 (stereo not shown) [Example 27.2, 1-[6-(3-Hydroxy-pyrrolidin-1-yl)-2-methyl-pyridin-3-yl]-3-methyl-8-(2-methylamino-pyrimidin-5-yl)-1,3-dihydro-imidazo[4,5-c]quinolin-2-one] |  | 32 nM
